Test results taken from patent publication US10029017B2, “Pretargeted activatable cell penetrating peptide with intracellularly releasable prodrug” (The Regents of the University of California, priority 2013, dated 2018).
Non-standard residues stand in square brackets, D forms with d. Residues, ends and D or L forms follow the SMILES beside them. *: point of attachment. Dolaproine = CO[C@@H]([C@@H]1CCCN1)[C@@H](C)C(=O)O; Dil = CC[C@H](C)[C@H](NC)[C@@H](CC(=O)O)OC; X1 = C[C@@H](N*)[C@@H](O)c1ccccc1; NMeV = CN[C@H](C(=O)O)C(C)C

System: MDA-MB-231 orthotopic xenografts
Assay: chemotherapy of MDA-MB-231 orthotopic xenografts: tumor volume, regression, survival
Type: in vivo, mice
Settings: 0.32 mg/kg equivalents of MMAE, equimolar free MMAE
Excerpt: A) Tumor growth curve obtained from MDA-MB-231 bilateral tumor bearing mice that were either intravenously injected with 6.5 nanomoles of MMAE (red line), cRAD-PEG6-MMAE (green line), cRGD-MMP-MMAE (dark blue) or no injection (no treatment, light blue).
Monomethyl auristatin E (MMAE), a potent chemotherapeutic inhibitor of tubulin polymerization, was conjugated to an ACPP via a peptide linker, Val-Cit-(p-amido)benzyloxycarbonyl, which is cleavable by cathepsin B, an endolysosomal protease. Mice harboring MDA-MB-231 orthotopic xenografts were dosed with cRGD-ACPP-MMAE at 0.2 mg/kg equivalents MMAE (6.5 nanomoles peptide) every three days for a total of four doses and tumor volumes were measured at regular intervals. […] When the dose was increased to 0.32 mg/kg equivalents of MMAE, the dual targeted peptide caused 4 out of 8 tumors to regress completely, compared to 2 out of 8 for equimolar free MMAE. The ACPPs caused no weight loss or gross toxicity. […] Animal weights are illustrated in FIGS. 7, 9, and 11.

CC[C@H](C)[C@@H]([C@@H](CC(=O)N1CCC[C@H]1[C@H](OC)[C@@H](C)C(=O)N[C@H](C)[C@@H](O)c1ccccc1)OC)N(C)C(=O)[C@@H](NC(=O)[C@@H](NC)C(C)C)C(C)C [MMAE, Monomethyl auristatin E] (H-[NMeV]V[Dil][Dolaproine]-X1)
tumors that regressed completely: 2 out of 8
